# According to PubChem BioAssay AID2305 (GlaxoSmithKline (GSK), 2010):
# Values joined by “and” are separate entries in the source; they are usually repeats but may differ in a detail not shown here. Equal entries are not always repeated.
# System: P. falciparum 3D7 growth, pLDH absorbance
# Assay: P. falciparum 3D7 growth inhibition, dose response, strain 3D7 (AID 2305)
row,Structure (SMILES),IC50
1,O=C(N[C@@H](CC1CCCCC1)C(=O)NCCN1CCCCC1)c1ccc(O)c(-c2ccc(Cl)c(Cl)c2)c1,0.15 µM
2,O=C(NCCCCN1CCC(O)(c2ccc(Cl)cc2)CC1)c1ccc(Br)cc1,1.25 µM
3,Nc1c(I)cc(C(=O)Nc2ccc3nc4c(c(N)c3c2)CCCC4)cc1I,0.14 µM
4,CN(C)CCn1c(N)c(-c2nc3ccccc3s2)c2nc(C#N)c(C#N)nc21,1.01 µM
5,O=C(Cc1n[nH]c(=O)c2ccccc12)Nc1cccc(C(=O)Nc2cccc(C(F)(F)F)c2)c1,0.17 µM
6,COc1ccc(C2CC(=O)C3=C(C2)NC(C)=C(C(=O)OC2CCCC2)C3c2cccc(O)c2)cc1 (centres undefined),1.01 µM
7,COc1cc(OC)cc(-c2nn(-c3ccc([N+](=O)[O-])cc3C#N)c(=S)n2Cc2ccco2)c1,0.58 µM
8,COc1ccc2nccc(N3CCC(NCCNCc4ccc5c(n4)NC(=O)CS5)C3)c2n1 (centres undefined),0.69 µM
9,C[C@H](NC(=O)[C@H](Cc1ccccc1)NC(=O)OC(C)(C)C)C(=O)N[C@@H](CC1CCCCC1)C(O)CN (some centres undefined),0.73 µM
10,COc1ccccc1NC(=O)CSc1nc2cccnc2n1-c1ccccc1OC,0.36 µM
11,CNC(=O)c1cc(S(=O)(=O)Nc2ccc(OC)cc2)cs1,1.13 µM
12,O=C(NCCNc1ccnc(NCc2ccc(F)cc2)n1)c1cc2ccccc2s1,0.7 µM
13,CC(Sc1nc(-c2ccccc2)c(-c2ccccc2)o1)C(=O)NC1CC1 (centres undefined),0.84 µM
14,CCc1c(CCNCCCC(C)CCNCCc2ccc(OC)c(OC)c2CC)ccc(OC)c1OC (centres undefined),1.11 µM
15,Nc1nc2c(c(=O)[nH]1)-c1cccc(Br)c1CC2,0.7 µM
16,COc1cc(CNCCC(C)C)ccc1OCc1cccc(COc2ccc(CNCCC(C)C)cc2OC)c1,0.49 µM
17,CN1CCN(c2cc3c(Nc4ccc5c(cnn5Cc5ccccc5)c4)ncnc3cn2)CC1,1.13 µM
18,O=C(Nc1ccc(N2CCC(Nc3ccccn3)CC2)cc1)c1cnc(Cl)c(Cl)c1,1.19 µM
19,CC(C)(CNCc1ccc(C(F)(F)F)cc1)c1nc(-c2ccc(Cl)c(O)c2)c(-c2ccncc2)[nH]1,0.73 µM
20,Nn1c(=O)oc2ccc(Cl)cc2c1=O,0.19 µM
21,CC(CO)(CO)NCc1cc2c3ccccc3c(CNC(C)(CO)CO)cc2c2ccccc12,0.72 µM
22,CC(=O)N/N=C/[C@H](CCc1ccccc1)NC(=O)[C@H](CC(C)C)NC(=O)c1ccc(OCCN2CCOCC2)cc1,0.22 µM
23,O=S(=O)(NCCN1CCCC1)c1cccc(-c2ccc(CNCc3ccsc3)cc2)c1,0.8 µM
24,Oc1ccc(CCNc2nc(NCCCOc3cccc(-c4ccccc4)c3)nc(N3CCNCC3)n2)cc1,1.13 µM
25,COCC(=O)N(Cc1cccc(-c2ccc(CNCCc3ccccc3)cc2)c1)C1CCN(Cc2ccccc2)CC1,1.1 µM

row,Structure (SMILES),IC50
1,N#Cc1ccc(N(CCOc2ccc(Cl)c(Cl)c2)Cc2ccccc2C(F)(F)F)cc1C(F)(F)F,1.11 µM
2,CCCCN(Cc1cnccc1-c1ccc(Br)cc1)c1ccc(C(O)(C(F)(F)F)C(F)(F)F)cc1,1.06 µM
3,CCCCN(CCCC)CCNC(=O)c1ccc(-c2nc3ccc(Cl)cc3[nH]2)c(OCC)c1,0.57 µM
4,CCCC(C)Nc1nc(C)cc(N[C@@H](CC(C)C)C(=O)Nc2ccc(OC)cc2)n1 (some centres undefined),0.87 µM
5,O=C(Nc1ccccc1O)C1CCN(c2ncnc3cc(-c4ccc(F)cc4)sc23)CC1,0.87 µM
6,COc1cc(C(C)C)ccc1N1CCN(CCCCNC(=O)c2ccc(NC(=O)c3ccc(Cl)cc3)cc2)CC1,0.58 µM
7,COc1ccc2nccc([C@@H](O)CN3CCC(NC(=O)/C(=C/c4ccccc4)c4ccc(-c5ccccc5)cc4)CC3)c2c1,1.05 µM
8,Cc1ccc(O)cc1Nc1ccnc2cc(-c3csc(CN(C)CCN(C)C)n3)ccc12,0.79 µM
9,CCCN(CC1CC1)c1nc(C)nc2c(-c3ccccc3)cc(C)cc12,1.02 µM
10,CN1CCCN(Cc2ccc(-c3cccc(NC(=O)c4cccc(C#N)c4)c3)cc2)CC1,0.65 µM
11,O=C(NC1CCN(CCc2c[nH]c3ccc(F)cc23)CC1)c1ncc(-c2ccccc2)[nH]1,0.87 µM
12,Cc1cc2c(cc1Cl)N(C(=O)Nc1cc(F)cc(-c3cncnc3)c1)CC2,0.38 µM
13,Cc1cc(CN2CCC(Nc3ncc(-c4ccsc4)c4nc(C(F)(F)F)ccc34)CC2)no1,1.1 µM
14,O=c1cc(NCCCNCc2ccc(Cl)c(Cl)c2)[nH]c2ccc(C(F)(F)F)cc12,0.52 µM
15,CCCCCCN1CCCN(Cc2ccc(C(=O)Nc3ccc(C)c(F)c3)cc2)CC1,0.33 µM
16,C[C@H]1[C@H](c2cccc(Cl)c2)OCC(C)(C)N1C(=O)CCN1CCCCC1,0.92 µM
17,COc1ccc(N2CCN(C(CNC(=O)C3CCCCC3)c3ccc4c(c3)OCO4)CC2)cc1 (centres undefined),0.57 µM
18,O=C(Nc1ccc(Cl)cn1)c1sc2ccccc2c1O,1.04 µM
19,Cc1[nH]c2cccc(F)c2c(=O)c1Cc1ccc(Cl)cc1 (tested in a mixture with another compound),0.23 µM and 0.35 µM
20,CCCCn1c(-c2ccco2)nc2c(c(=O)c3ccccc3n2C)c1=O,1.24 µM
21,Cc1nc2nc(N)nc(N)c2c(C)c1Cc1ccccc1,0.25 µM
22,C[C@H](NC(=O)c1c(CN2CCC(N3CCCCC3)CC2)c(-c2ccccc2)nc2cc(O)ccc12)C1CCCCC1,0.76 µM
23,Cc1cccc(C)c1C1CCN(CCCCNC(=O)c2cc3ccccc3[nH]2)CC1,0.89 µM
24,CC(N)(Cc1ccc(O)cc1)c1nn[nH]n1 (centres undefined),0.97 µM
25,CCCCNC(=O)[C@H](CC1CCCCC1)NC(=O)c1ccc(O)c(-c2ccc(OC)cc2)c1,0.92 µM

row,Structure (SMILES),IC50
1,Cc1cccc(C)c1OC(=O)CSc1nnc(-c2ccccc2O)o1,0.88 µM
2,Cc1cc(N(C)C)nc(Nc2ccc(NC(=O)c3ccccc3Cl)cc2)n1,1.02 µM
3,CC(Cc1ccc(NC(=O)c2ccc(CC(C)NCc3ccc(Cl)cc3)cc2)cc1)NCCc1cccc(Cl)c1 (centres undefined),0.45 µM
4,COc1ccc(NC(=O)CSc2nc(-c3ccccc3Cl)ns2)cc1OC,0.76 µM
5,CC1CC1C(=O)NC1CCN(CC2(c3ccccc3)CCCCC2)CC1 (centres undefined),0.64 µM
6,O=[N+]([O-])c1cccc(CNCC2CCN(CC3CCCCC3)CC2)c1,1.29 µM
7,CC1CN(c2ccc(C(=O)NCC3CC3)cc2NC(=O)OCc2ccccc2)CC(C)O1 (centres undefined),1.3 µM
8,O=C(Nc1ccc([N+](=O)[O-])cc1Br)c1cc2ccccc2nc1Cl,0.19 µM
9,O=C(Nc1cccc(CN2CCCN(Cc3cccc(O)c3)CC2)c1)c1cc2ccccc2s1,0.36 µM
10,CS(=O)(=O)c1ccc(-c2nc(NCC3CCCCC3)cc(C(F)(F)F)n2)cc1,0.67 µM
11,O=C(/C=C/c1ccc(Cl)c(Cl)c1)N1CCC(NCc2ccc3[nH]ccc3c2)CC1,1.02 µM
12,CCN(CCCN1CCCCC1)c1cc(C)nc(Nc2ccc(Cl)cc2C)n1,0.73 µM
13,Cc1nc(-c2ccc(-c3ccc(C(=O)Nc4ccc(I)c(OCC5CCCN5C)c4)cc3)c(C)c2)no1 (centres undefined),0.03 µM
14,CN1CCc2ccc(NC(=O)Nc3ccc(-c4ccccc4)cc3)cc2C1,0.51 µM
15,CC(C)C[C@H](NC(=O)c1cccc(F)c1)C(=O)N[C@H](/C=N/NC(=O)c1ccccc1)CCc1ccccc1,0.71 µM
16,Cc1ccccc1C1CCN(C2CCC(NC(=O)/C=C/c3c[nH]c4ccccc34)CC2)CC1 (centres undefined),0.81 µM
17,Brc1ccc(Nc2ccnc3cc(-c4nccs4)ccc23)cc1Oc1ccnc2cc(-c3nccs3)ccc12,1.06 µM
18,Cc1cc(=O)c(-c2ccc(Oc3ccc(OC(F)(F)F)cc3)cc2)c(C)[nH]1,0.36 µM
19,CCCC(C)C(=O)N1CCOC(COCc2cccc(C(F)(F)F)c2)(c2ccc(Cl)cc2)C1 (centres undefined),0.4 µM
20,CN(C)c1ccc(CN2CCC(CNC(=O)c3cc(-c4ccccc4Cl)cs3)C2)cc1 (centres undefined),1.44 µM
21,COc1ccc(-c2ccc(NC(=O)c3ccc(Cl)cc3)cc2)cc1CN1CCN(C)CC1,0.82 µM
22,COc1ccc(CN(C)C(=O)CCNS(=O)(=O)c2ccc3c(c2)OCCCO3)cc1F,0.66 µM
23,Cc1cc(NC(=O)c2coc3cc(F)c(N4C[C@@H](C)N(C)[C@@H](C)C4)cc23)ccc1-n1ccnc1,0.84 µM
24,O=C(Nc1ccc(Cn2ncc(N3CCCNCC3)c(Cl)c2=O)cc1)Nc1ccc(F)cc1[N+](=O)[O-],1.1 µM
25,CC(C)Nc1nc(NCCc2cnc[nH]2)nc(NCc2cccc3ccccc23)n1,1.01 µM

row,Structure (SMILES),IC50
1,CCOC(=O)c1cc(C(=O)OC)c2ccccn12,0.22 µM
2,CCOc1ccc2nc(C)cc(NN=Cc3cccc(F)c3)c2c1,0.74 µM
3,O=C(Nc1ccccc1)OCCOc1ccc(CC2SC(=O)NC2=O)cc1 (centres undefined),0.37 µM
4,O=C(Nc1ccc(-c2nc3ccccc3[nH]2)cc1)c1ccc(-c2cccc([N+](=O)[O-])c2)o1,0.27 µM
5,Cc1cc(N2CCOCC2)nc2ccc(NC(=O)c3ccc(Cl)c([N+](=O)[O-])c3)cc12,1.03 µM
6,CCCC(C)NC(=O)[C@H](CC1CCCCC1)NC(=O)c1ccc(O)c(-c2cccc(C(F)(F)F)c2)c1 (some centres undefined),0.53 µM
7,O=C(Nc1cc(Oc2ccc(O)cc2)cc([N+](=O)[O-])c1)c1cc(-c2ccc(F)cc2)no1,0.96 µM
8,CCn1c(-c2cc(C)on2)nc2cnc(Oc3ccc(C(=O)N4CC(=O)N(C)C4C(C)(C)C)cc3)cc21 (centres undefined),1.82 µM
9,O=C(c1cccc(-c2cccc(-c3nc4ccc(F)cc4[nH]3)c2)c1)N1CCCCC1CN1CCC(O)C1 (centres undefined),0.88 µM
10,CCOc1cc2ccccc2cc1CNCCCCCCNCc1cc2ccccc2cc1OCC,0.98 µM
11,O=C(Cc1cnc[nH]1)Nc1cccc(-c2ccc(-c3nc4ccc(F)cc4[nH]3)cc2)c1,0.81 µM
12,Cc1cc(CNC(c2ccccc2)C2CCC2)cc(C)c1O (centres undefined),0.89 µM
13,CCOc1ccc2nc(C)cc(NN=Cc3ccccc3)c2c1,0.78 µM
14,OCCN1CCN(Cc2ccc(-c3ccc(-c4nc5ccccc5[nH]4)cc3)cc2)CC1,0.62 µM
15,CNCCNCc1cccc(-c2cccc(-c3nc4c(C)cccc4[nH]3)c2)c1,0.77 µM
16,COc1ccc2nccc(NCC3(O)CCN(CC(O)c4ccc5c(c4)NC(=O)CS5)CC3)c2n1 (centres undefined),0.83 µM
17,Clc1ccc2c(NCc3ccc4c(c3)OCO4)ccnc2c1,0.27 µM
18,Cc1ccc(C(O)CNc2ccnc(Nc3cccc(-c4csc(C)n4)c3)n2)cc1 (centres undefined),0.83 µM
19,COc1ccc(-c2ccc(NC(=O)c3cccc(Cl)c3)cc2)cc1CNC(C)C,0.47 µM
20,O=[N+]([O-])c1cnc(Nc2ccccc2O)nc1Nc1ccccc1O,0.9 µM
21,Cc1[nH]c2ccccc2c1C1=CCN(CCCCC2(C)C(=O)Nc3cccc(F)c32)CC1 (centres undefined),0.36 µM
22,O=C(/C=C/c1ccc(Cl)c(Cl)c1)NCCCCCN1CCCC(CNC(=O)Nc2ccc(C(F)(F)F)cc2)C1 (centres undefined),0.67 µM
23,COc1ccc2[nH]cc(C3C[C@H]4CC[C@@H](C3)N4CCC3CCN(C(=O)/C=C/c4ccc(Cl)c(Cl)c4)CC3)c2c1 (some centres undefined),0.62 µM
24,Cc1cc(NN=Cc2ccccc2[N+](=O)[O-])c2cccc(C)c2n1,0.55 µM
